Literature values in patent publication US20060004050A1, “Compositions and methods for the prevention or treatment of pain and other nervous system disorders” (priority 2004, published 2006).

Assays:
[1] = system: spinal cord and descending neural pathways; conditions: rats
[2] = system: spinal nerve root action potentials; conditions: cats
[3] = system: calcium current of snail neurons
[4] = in vivo
[5] = in vivo; remark: listed apart in the source
[6] = rat
beta-adrenergic = conditions: L-form versus D-enantiomer

Compound: Cc1ccc(C(=O)C(C)CN2CCCCC2)cc1 (racemic) [Tolperisone, 2,4′-dimethyl-3-piperidino-propiophenone]
- effect on segmental (limb) reflexes [1]: depress segmental (limb) reflexes
- effect on ventral nerve root reflexes and dorsal nerve root reflex [2]: dose-dependently inhibit both ventral nerve root reflexes and the dorsal nerve root reflex
- effect on calcium current [3]: inhibit calcium current dose-dependently
- most serious adverse effect [4]: anaphylaxis
- other frequently reported adverse effects [4]: muscle weakness, muscle pain, headache, dizziness, and gastric complaints
- membrane effect (tissue membrane): tissue membrane stabilizing properties

Compound: O=C1CCC(N2C(=O)c3ccccc3C2=O)C(=O)N1 (single isomer, unassigned) [D-enantiomer of thalidomide, thalidomide]
- effect when prescribed for morning sickness during pregnancy [5]: safe and effective sedative

Compound: O=C1CCC(N2C(=O)c3ccccc3C2=O)C(=O)N1 (single isomer, unassigned) [L-enantiomer of thalidomide, thalidomide]
- effect when prescribed for morning sickness during pregnancy [5]: potent teratogen

Compound: Cc1ccc(C(=O)C(C)CN2CCCCC2)cc1 (single isomer, unassigned; (+)) [(+)-tolperisone]
- pharmacodynamic property of the isomer [6]: more muscle-relaxant properties

Compound: Cc1ccc(C(=O)C(C)CN2CCCCC2)cc1 (single isomer, unassigned; (-)) [(−)-tolperisone]
- pharmacodynamic property of the isomer [6]: vasodilatory activity

Compound: CC(C)NCC(O)COc1cccc2ccccc12 (centres unmarked) [propranolol]
- potency relative to the D-enantiomer (beta-adrenergic): 100 times
